In patent US8471005B2 (Cephalon, Inc., priority 2008, dated 2013):
Where two headings read alike, the source gives them in different places.

Tests used:
[1] = molecular target: T1, JAK2 (Homo sapiens, UniProt O60674); test: Recombinant Human JAK2 Kinase Assay (TRF); format: biochemical; details: read-out: JAK2 Potency
T1 construct: host or cells: baculovirus expression system
Outline: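 Kinase activity of baculovirus-expressed JAK2 is followed on a surface-immobilised biotinylated peptide, with the reaction run for 20 min at room temperature in buffer containing 0.2 μM ATP and manganese. Phosphorylation is read with Eu-N1 PY100 antibody.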

[2] = molecular target: T2, ALK (Homo sapiens, UniProt Q9UM73); test: ALK Kinase Assay (ELISA/TRF, PLC-γ substrate); format: biochemical; details: read-out: ALK Potency
T2 construct: host or cells: baculovirus expression system
T2 sequence (Q9UM73 19-1620): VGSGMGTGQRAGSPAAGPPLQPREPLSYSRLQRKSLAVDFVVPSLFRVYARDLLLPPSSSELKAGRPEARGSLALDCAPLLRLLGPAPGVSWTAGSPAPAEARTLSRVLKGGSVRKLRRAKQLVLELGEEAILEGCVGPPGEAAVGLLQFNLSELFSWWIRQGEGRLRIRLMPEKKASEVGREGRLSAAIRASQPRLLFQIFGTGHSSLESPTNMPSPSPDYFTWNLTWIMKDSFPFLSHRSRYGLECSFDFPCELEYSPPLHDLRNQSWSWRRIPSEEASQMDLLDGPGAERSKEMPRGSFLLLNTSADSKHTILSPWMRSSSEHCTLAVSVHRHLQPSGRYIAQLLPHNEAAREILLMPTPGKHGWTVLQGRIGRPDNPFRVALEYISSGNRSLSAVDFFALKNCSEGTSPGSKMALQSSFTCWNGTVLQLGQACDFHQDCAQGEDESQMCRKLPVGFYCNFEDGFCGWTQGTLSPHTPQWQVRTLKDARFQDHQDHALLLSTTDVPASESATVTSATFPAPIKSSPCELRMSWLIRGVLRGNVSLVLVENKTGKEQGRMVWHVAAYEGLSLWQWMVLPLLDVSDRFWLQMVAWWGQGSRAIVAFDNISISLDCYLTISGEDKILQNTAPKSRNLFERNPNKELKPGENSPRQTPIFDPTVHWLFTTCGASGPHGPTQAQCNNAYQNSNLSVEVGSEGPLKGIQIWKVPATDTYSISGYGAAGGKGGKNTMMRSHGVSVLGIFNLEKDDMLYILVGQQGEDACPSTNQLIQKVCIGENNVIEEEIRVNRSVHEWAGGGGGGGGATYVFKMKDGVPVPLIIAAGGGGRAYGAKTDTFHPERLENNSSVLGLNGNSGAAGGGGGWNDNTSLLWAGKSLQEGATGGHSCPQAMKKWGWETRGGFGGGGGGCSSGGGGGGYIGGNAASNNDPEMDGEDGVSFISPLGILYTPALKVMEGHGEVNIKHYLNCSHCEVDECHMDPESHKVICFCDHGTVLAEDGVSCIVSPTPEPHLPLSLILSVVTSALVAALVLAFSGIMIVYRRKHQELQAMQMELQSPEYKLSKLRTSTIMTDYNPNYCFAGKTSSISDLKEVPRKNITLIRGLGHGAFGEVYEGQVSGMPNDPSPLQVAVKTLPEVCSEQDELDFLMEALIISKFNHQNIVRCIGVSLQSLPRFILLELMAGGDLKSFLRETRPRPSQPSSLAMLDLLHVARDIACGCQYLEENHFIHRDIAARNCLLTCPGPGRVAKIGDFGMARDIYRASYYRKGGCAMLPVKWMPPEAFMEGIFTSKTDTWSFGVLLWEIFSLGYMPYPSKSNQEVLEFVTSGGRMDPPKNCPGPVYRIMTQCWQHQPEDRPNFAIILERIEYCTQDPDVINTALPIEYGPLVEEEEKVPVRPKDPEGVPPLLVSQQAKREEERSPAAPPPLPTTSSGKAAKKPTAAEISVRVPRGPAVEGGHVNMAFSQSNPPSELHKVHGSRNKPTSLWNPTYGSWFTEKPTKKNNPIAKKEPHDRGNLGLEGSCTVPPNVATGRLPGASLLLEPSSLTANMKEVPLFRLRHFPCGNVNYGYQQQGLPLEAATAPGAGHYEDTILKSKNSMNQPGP
Outline: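 Time-resolved fluorescence ELISA using Eu-N1 PT66 antibody to detect phosphorylated PLC-γ (coated at 10 μg/mL). Enzyme at 30 ng/ml ALK; 15 min incubation, 37° C.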

[3] = JAK2 kinase inhibition, 0.2 μM ATP
[4] = ALK kinase inhibition, 1 μM ATP

T1 sequence (O60674 whole entry): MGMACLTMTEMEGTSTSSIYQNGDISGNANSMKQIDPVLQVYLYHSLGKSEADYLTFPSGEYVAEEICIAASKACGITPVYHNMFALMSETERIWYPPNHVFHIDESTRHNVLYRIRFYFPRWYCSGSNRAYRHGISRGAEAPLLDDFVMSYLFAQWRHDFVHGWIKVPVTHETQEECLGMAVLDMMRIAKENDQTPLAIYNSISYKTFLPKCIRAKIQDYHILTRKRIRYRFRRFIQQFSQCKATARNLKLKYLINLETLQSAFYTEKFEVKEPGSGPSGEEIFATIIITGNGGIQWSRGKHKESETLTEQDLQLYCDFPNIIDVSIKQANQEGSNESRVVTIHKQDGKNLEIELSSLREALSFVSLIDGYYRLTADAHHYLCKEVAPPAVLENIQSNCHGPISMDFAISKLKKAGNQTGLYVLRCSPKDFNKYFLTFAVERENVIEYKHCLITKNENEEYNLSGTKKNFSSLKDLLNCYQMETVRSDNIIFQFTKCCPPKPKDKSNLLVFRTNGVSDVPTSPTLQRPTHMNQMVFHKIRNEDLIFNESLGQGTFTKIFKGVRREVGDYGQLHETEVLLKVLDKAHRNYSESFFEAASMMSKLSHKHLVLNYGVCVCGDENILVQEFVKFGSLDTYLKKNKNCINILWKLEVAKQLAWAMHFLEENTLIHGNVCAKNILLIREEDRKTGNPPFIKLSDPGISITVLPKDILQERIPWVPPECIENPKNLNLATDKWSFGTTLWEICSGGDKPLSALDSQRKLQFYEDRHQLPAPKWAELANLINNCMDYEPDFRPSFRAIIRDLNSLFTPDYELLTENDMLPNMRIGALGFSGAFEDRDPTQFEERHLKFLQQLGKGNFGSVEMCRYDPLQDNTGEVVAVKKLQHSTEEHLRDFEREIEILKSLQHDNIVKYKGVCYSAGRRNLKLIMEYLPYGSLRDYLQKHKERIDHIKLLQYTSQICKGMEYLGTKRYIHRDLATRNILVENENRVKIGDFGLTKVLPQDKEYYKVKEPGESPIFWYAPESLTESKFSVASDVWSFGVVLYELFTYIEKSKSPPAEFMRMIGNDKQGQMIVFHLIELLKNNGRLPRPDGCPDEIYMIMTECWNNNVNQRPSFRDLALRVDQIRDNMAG

| IC50 [1, 3] [nM] | IC50 [2, 4] [nM] | IC50 ([1]; JAK2 Kinase Inhibition) [nM] | IC50 ([2]; ALK Kinase Inhibition) [nM] | Compound |
| --- | --- | --- | --- | --- |
|  |  | < 100 | 100 to 1000 | COc1ccc(Nc2ncc3ccc(-c4cccc(S(=O)(=O)NC(C)(C)C)c4)n3n2)cc1N1CCCC1=O [Example 1377, N-tert-Butyl-3-{2-[4-methoxy-3-(2-oxo-pyrrolidin-1-yl)-phenylamino]-pyrrolo[2,1-f][1,2,4]triazin-7-yl}-benzenesulfonamide] |
| < 100 | < 100 |  |  | COc1ccccc1-c1ccc2cnc(Nc3ccc4c(c3)CCN(C)C4)nn12 [Example 915, [7-(2-Methoxy-phenyl)-pyrrolo[2,1-f][1,2,4]triazin-2-yl]-(2-methyl-1,2,3,4-tetrahydro-isoquinolin-6-yl)-amine] |
|  |  | 100 to 1000 | < 100 | COc1cc(N2CCC(N3CCC(F)(F)CC3)CC2)ccc1Nc1ncc2ccc(-c3ccccc3OC)n2n1 [Example 1475, [4-(4,4-Difluoro-[1,4′]bipiperidinyl-1′-yl)-2-methoxy-phenyl]-[7-(2-methoxy-phenyl)-pyrrolo[2,1-f][1,2,4]triazin-2-yl]-amine] |
| < 100 | 1000 to 10000 |  |  | CS(=O)(=O)c1cccc(-c2ccc3cnc(Nc4ccc(Cl)c(OC[C@@H]5CCCN5)c4)nn23)c1 [Example 1020, [4-Chloro-3-((S)-1-pyrrolidin-2-ylmethoxy)-phenyl]-[7-(3-methanesulfonyl-phenyl)-pyrrolo[2,1-f][1,2,4]triazin-2-yl]-amine] |
| < 100 | < 100 |  |  | COc1cc(OC2CCN(C)CC2)ccc1Nc1ncc2ccc(-c3ccccc3OC)n2n1 [Example 998, [2-Methoxy-4-(1-methyl-piperidin-4-yloxy)-phenyl]-[7-(2-methoxy-phenyl)-pyrrolo[2,1-f][1,2,4]triazin-2-yl]-amine] |
| 100 to 1000 | < 100 |  |  | COc1cc(OC2CCN(C)CC2)ccc1Nc1ncc2ccc(-c3ccccc3N(C)S(C)(=O)=O)n2n1 [Example 999, N-(2-{2-[2-Methoxy-4-(1-methyl-piperidin-4-yloxy)-phenylamino]-pyrrolo[2,1-f][1,2,4]triazin-7-yl}-phenyl)-N-methyl-methanesulfonamide] |
| < 100 | 100 to 1000 |  |  | CN1CCN(c2cccc(Nc3ncc4ccc(-c5cnn(CCCO)c5)n4n3)c2)CC1 [Example 976, 3-(4-{2-[3-(4-Methyl-piperazin-1-yl)-phenylamino]-pyrrolo[2,1-f][1,2,4]triazin-7-yl}-pyrazol-1-yl)-propan-1-ol] |
|  |  | < 100 | 100 to 1000 | COc1ccc(-c2ccc3cnc(Nc4ccc(C5CN(C)CCN5C)cc4)nn23)cn1 (stereo not shown) [Example 1530, [4-(1,4-Dimethyl-piperazin-2-yl)-phenyl]-[7-(6-methoxy-pyridin-3-yl)-pyrrolo[2,1-f][1,2,4]triazin-2-yl]-amine] |
| < 100 | 1000 to 10000 |  |  | CN1CCN(c2ccc(Nc3ncc4ccc(Sc5ccncc5)n4n3)cc2)CC1 [Example 1117, [4-(4-Methyl-piperazin-1-yl)-phenyl]-[7-(pyridin-4-ylsulfanyl)-pyrrolo[2,1-f][1,2,4]triazin-2-yl]-amine] |
| < 100 | 100 to 1000 |  |  | CN1CCN(c2cccc(Nc3ncc4ccc(-c5cccc(NCCS(C)(=O)=O)c5)n4n3)c2)CC1 [Example 894, {7-[3-(2-Methanesulfonyl-ethylamino)-phenyl]-pyrrolo[2,1-f][1,2,4]triazin-2-yl}-[3-(4-methyl-piperazin-1-yl)-phenyl]-amine] |
| < 100 | 100 to 1000 |  |  | CN1CCC(c2ccc(Nc3ncc4ccc(-c5cccc(S(=O)(=O)NCc6ccccc6)c5)n4n3)cc2)CC1 [Example 904, N-Benzyl-3-{2-[4-(1-methyl-piperidin-4-yl)-phenylamino]-pyrrolo[2,1-f][1,2,4]triazin-7-yl}-benzenesulfonamide] |
| < 100 | < 100 |  |  | COc1ccccc1-c1ccc2cnc(Nc3ccc(C4CCN(C[C@H](O)CO)CC4)cc3)nn12 [Example 1125, (S)-3-(4-{4-[7-(2-Methoxy-phenyl)-pyrrolo[2,1-f][1,2,4]triazin-2-ylamino]-phenyl}-piperidin-1-yl)-propane-1,2-diol] |
| < 100 | 1000 to 10000 |  |  | CS(=O)(=O)c1cccc(-c2ccc3cnc(Nc4ccc(-c5cccnc5)cc4)nn23)c1 [Example 1087, [7-(3-Methanesulfonyl-phenyl)-pyrrolo[2,1-f][1,2,4]triazin-2-yl]-(4-pyridin-3-yl-phenyl)-amine] |

Second part, the compound before the results:

| Compound | IC50 [1, 3] [nM] | IC50 [2, 4] [nM] | IC50 ([1]; JAK2 Kinase Inhibition) [nM] | IC50 ([2]; ALK Kinase Inhibition) [nM] |
| --- | --- | --- | --- | --- |
| COc1cc(C2CCN(C(=O)CN(C)C)CC2)ccc1Nc1ncc2ccc(-c3ccccc3OC)n2n1 [Example 815, 2-Dimethylamino-1-(4-{3-methoxy-4-[7-(2-methoxy-phenyl)-pyrrolo[2,1-f][1,2,4]triazin-2-ylamino]-phenyl}-piperidin-1-yl)-ethanone] | 100 to 1000 | < 100 |  |  |
| COc1cc(N2CCN(C)CC2)ccc1Nc1ncc2ccc(-c3cccc(S(C)(=O)=O)c3)n2n1 [Example 76, [7-(3-Methanesulfonyl-phenyl)-pyrrolo[2,1-f][1,2,4]triazin-2-yl]-[2-methoxy-4-(4-methyl-piperazin-1-yl)-phenyl]-amine] |  |  | < 100 | < 100 |
| O=C(c1ccc(Nc2ncc3ccc(-c4cccnc4)n3n2)cc1)N1CCOCC1 [Example 317, Morpholin-4-yl-[4-(7-pyridin-3-yl-pyrrolo[2,1-f][1,2,4]triazin-2-ylamino)-phenyl]-methanone] |  |  | < 100 | 1000 to 10000 |
| CN1C(=O)COc2cc(Nc3ncc4ccc(-c5cccnc5)n4n3)ccc21 [Example 649, 4-Methyl-7-(7-pyridin-3-yl-pyrrolo[2,1-f][1,2,4]triazin-2-ylamino)-4H-benzo[1,4]oxazin-3-one] | < 100 | 1000 to 10000 |  |  |
| COc1cc(N2CCC(N(C)CCO)CC2)ccc1Nc1ncc2ccc(-c3ccccc3OC)n2n1 [Example 796, 2-[(1-{3-Methoxy-4-[7-(2-methoxy-phenyl)-pyrrolo[2,1-f][1,2,4]triazin-2-ylamino]-phenyl}-piperidin-4-yl)-methyl-amino]-ethanol] | < 100 | < 100 |  |  |
| COc1cc2c(cc1Nc1ncc3ccc(-c4ccccc4OC)n3n1)CN(C(=O)CN)C2 [Example 878, 2-Amino-1-{5-methoxy-6-[7-(2-methoxy-phenyl)-pyrrolo[2,1-f][1,2,4]triazin-2-ylamino]-1,3-dihydro-isoindol-2-yl}-ethanone] | < 100 | < 100 |  |  |
| CC1(C)CCC(=O)Nc2cc(Nc3ncc4cc5ccccc5n4n3)ccc21 [Example 265, 5,5-Dimethyl-8-([1,2,4]triazino[1,6-a]indol-2-ylamino)-1,3,4,5-tetrahydro-benzo[b]azepin-2-one] |  |  | < 100 | > 10000 |
| Cn1cc(-c2ccc3cnc(Nc4cccc(N5CCOCC5)c4)nn23)cn1 [Example 198, [7-(1-Methyl-1H-pyrazol-4-yl)-pyrrolo[2,1-f][1,2,4]triazin-2-yl]-(3-morpholin-4-yl-phenyl)-amine] |  |  | < 100 | 100 to 1000 |
| COc1ccccc1-c1ccc2cnc(Nc3ccc(N4CCC(CN5CCN(C)CC5)CC4)cc3)nn12 [Example 451, [7-(2-Methoxy-phenyl)-pyrrolo[2,1-f][1,2,4]triazin-2-yl]-{4-[4-(4-methyl-piperazin-1-ylmethyl)-piperidin-1-yl]-phenyl}-amine] |  |  | < 100 | < 100 |
| COc1cc(Nc2ncc3ccc(-c4cccc(Cl)c4)n3n2)cc(OC)c1 [Example 156, [7-(3-Chloro-phenyl)-pyrrolo[2,1-f][1,2,4]triazin-2-yl]-(3,5-dimethoxy-phenyl)-amine] |  |  | < 100 | > 10000 |
